From PubChem BioAssay (NCI) come the findings set out here.

Several values for one entry are separate records, joined by “and”; a condition that tells them apart may be missing. Equal values may be shown once.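 In this assay, cells in 96-well plates receive the compound at five concentrations for 48 hours. Endpoints are linearly interpolated between the surrounding concentrations. The concentration for 50% growth inhibition is given as GI50. At the TGI there is no net growth.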

Some test systems named below: CCRF-CEM leukemia; COLO 205 colon; DU-145 prostate; NCI-H23 lung; NCI-H460 lung; OVCAR-5 ovarian; RXF 393 renal; SN12C renal; SR leukemia; U251 CNS.
Common to all, as to test: DTP human tumour cell line panel, 48 h

One may read the GI50 as the concentration that inhibits growth by half. What is called TGI is the concentration at which net growth stops. For `Nc1ccn(C2OC(CO)C(O)C2F)c(=O)n1` (stereo unspecified), the GI50 is 1670 nM with CCRF-CEM leukemia; 688 µM with COLO 205 colon; greater than 5000 µM with DU-145 prostate; greater than 5000 µM in the assay on NCI-H23 lung; 810 µM and 773 µM in the assay with NCI-H460 lung; greater than 5000 µM in the assay with OVCAR-5 ovarian. The GI50 is greater than 5000 µM in the assay on RXF 393 renal; greater than 5000 µM in the assay with SN12C renal; 412 µM and 2500 µM in the assay on SR leukemia; greater than 5000 µM in the assay with U251 CNS. Moreover, the TGI in the assay on COLO 205 colon, in the assay on DU-145 prostate, in the assay with NCI-H23 lung, with NCI-H460 lung, with OVCAR-5 ovarian and with RXF 393 renal was greater than 5000 µM in each case. Also, the TGI with SN12C renal, in the assay on SR leukemia and in the assay on U251 CNS was greater than 5000 µM in each case.

On to `COc1cc(/C(Cl)=C/C=C/C(=O)c2c(C)[n+]([O-])c3ccc(Cl)cc3[n+]2[O-])cc(OC)c1OC`, for which the GI50 in the assay on CCRF-CEM leukemia is 1620 nM; in the assay on COLO 205 colon it was 10 µM; in the assay on DU-145 prostate, 11.8 µM; in the assay on NCI-H23 lung it was 9.36 µM; with NCI-H460 lung, 11.5 µM; in the assay with OVCAR-5 ovarian, 13 µM. For the same compound, the GI50 is 9.15 µM in the assay with RXF 393 renal, 9.1 µM in the assay with SN12C renal, 1.47 µM in the assay with SR leukemia and 2.57 µM in the assay with U251 CNS. Further, the TGI in the assay with CCRF-CEM leukemia was greater than 50 µM; in the assay on COLO 205 colon it was 28.2 µM; with DU-145 prostate, greater than 50 µM; with NCI-H23 lung, 44.6 µM; with NCI-H460 lung, greater than 50 µM; with OVCAR-5 ovarian, 33.2 µM. Also, the TGI in the assay on RXF 393 renal was 28 µM; with SN12C renal, greater than 50 µM; in the assay on SR leukemia, 4.72 µM; in the assay on U251 CNS it was 10.5 µM.

For the compound `C[n+]1c(/C=C\C=C\N2CCCCC2)sc2ccccc21`, the concentration for 50% growth inhibition (GI50) is 299 nM with CCRF-CEM leukemia; 0.204 µM in the assay on COLO 205 colon; 0.598 µM in the assay on DU-145 prostate; 0.367 µM with NCI-H23 lung; 0.489 µM with NCI-H460 lung; 5.2 µM with OVCAR-5 ovarian. Moreover, the GI50 is 3.48 µM with RXF 393 renal, 0.716 µM in the assay with SN12C renal, 0.105 µM in the assay on SR leukemia and 0.291 µM with U251 CNS. The concentration for total growth inhibition (TGI) is greater than 40.5 µM with CCRF-CEM leukemia; 0.454 µM in the assay on COLO 205 colon; 17.1 µM in the assay on DU-145 prostate; 18.3 µM in the assay on NCI-H23 lung; 4.37 µM in the assay with NCI-H460 lung; greater than 35.2 µM with OVCAR-5 ovarian. Besides, the concentration for total growth inhibition (TGI) came out at 17.6 µM in the assay with RXF 393 renal, 21.2 µM in the assay with SN12C renal, 3.08 µM in the assay on SR leukemia and 15 µM with U251 CNS.

As to `C(=Nc1ccccc1)C1CCCC[N-]1.C(=Nc1ccccc1)C1CCCC[N-]1.[Cu+2].[O-][Cl+3]([O-])([O-])O` (stereo unspecified), the GI50 was 6300 nM with CCRF-CEM leukemia; 12.8 µM in the assay on COLO 205 colon; 8.48 µM in the assay on DU-145 prostate; 15.1 µM in the assay on NCI-H23 lung; 11.2 µM in the assay on NCI-H460 lung; 14.8 µM in the assay on OVCAR-5 ovarian. Moreover, the GI50 with RXF 393 renal is 38.2 µM; with SN12C renal, 15.4 µM; in the assay on SR leukemia it was 1.64 µM; with U251 CNS it was 10.7 µM. Moreover, the TGI was 36.6 µM in the assay with CCRF-CEM leukemia; greater than 52.2 µM in the assay on COLO 205 colon; 36.9 µM in the assay on DU-145 prostate; 33.2 µM in the assay with NCI-H23 lung; greater than 58.2 µM in the assay with NCI-H460 lung; 31.6 µM with OVCAR-5 ovarian. Besides, the TGI in the assay on RXF 393 renal is greater than 100 µM; with SN12C renal, 36.1 µM; in the assay with SR leukemia, 6.12 µM; in the assay on U251 CNS, 30.4 µM.

Consider `CC1=NN(C(=O)c2ccccc2O)C(=O)/C1=C/c1ccc([N+](=O)[O-])cc1`, for which the GI50 with CCRF-CEM leukemia was 259 nM; in the assay on COLO 205 colon it was 7.43 µM; with DU-145 prostate, 0.327 µM; with NCI-H23 lung it was 0.654 µM; in the assay on NCI-H460 lung, 0.414 µM; in the assay with OVCAR-5 ovarian it was 2.62 µM. For the same compound, the concentration for 50% growth inhibition (GI50) with RXF 393 renal is 0.263 µM; in the assay on SN12C renal it was 2.06 µM; with SR leukemia it was 5.04 µM; in the assay on U251 CNS, 0.516 µM. The TGI with COLO 205 colon is greater than 88 µM; in the assay on DU-145 prostate it was greater than 100 µM; in the assay with NCI-H23 lung, 4.77 µM; in the assay with NCI-H460 lung, greater than 100 µM; with OVCAR-5 ovarian it was greater than 100 µM; in the assay on SN12C renal, greater than 26.5 µM. This compound had a TGI with U251 CNS greater than 100 µM.

As to `CCCN(CCC)CCCNCc1cc(I)cc(C)c1O`, the GI50 was 1280 nM with CCRF-CEM leukemia; 13.8 µM in the assay on COLO 205 colon; 19.4 µM with DU-145 prostate; 15.2 µM in the assay on NCI-H23 lung; 13.3 µM with NCI-H460 lung; 18.5 µM with OVCAR-5 ovarian. The GI50 is 9.91 µM in the assay on RXF 393 renal, 28.7 µM in the assay on SN12C renal, 7.18 µM in the assay on SR leukemia and 15.9 µM in the assay on U251 CNS. In addition, the TGI with CCRF-CEM leukemia stood at 6.06 µM; in the assay with COLO 205 colon it was 29 µM; in the assay on DU-145 prostate, 42 µM; with NCI-H23 lung, 33.5 µM; with NCI-H460 lung, 26 µM; in the assay on OVCAR-5 ovarian, 43.7 µM. Further, the total growth inhibition concentration (TGI) in the assay on RXF 393 renal was 23.2 µM; in the assay with SN12C renal, greater than 100 µM; in the assay on SR leukemia it was 21.2 µM; with U251 CNS, 29.4 µM.

In the case of `Cc1ccc(NCCCN2CCN(CCCNc3ccc(C)c4sc5ccccc5c(=O)c34)CC2)c2c(=O)c3ccccc3sc12`, the TGI in the assay with CCRF-CEM leukemia, in the assay on COLO 205 colon, with DU-145 prostate, with NCI-H23 lung, with NCI-H460 lung and in the assay on OVCAR-5 ovarian was greater than 100 µM each time. Besides, the TGI in the assay with RXF 393 renal, in the assay on SN12C renal, in the assay with SR leukemia and with U251 CNS was greater than 100 µM each time.

Take `CC/C(Cc1ccccc1)=C(\c1ccc(OCCN2CCCCCC2)cc1)c1ccc(OC(=O)NCc2ccccc2)cc1`: the GI50 in the assay on CCRF-CEM leukemia was 1560 nM; in the assay with COLO 205 colon, 1.01 µM; with DU-145 prostate, 3.52 µM; in the assay with NCI-H23 lung, 5.89 µM; in the assay with NCI-H460 lung, 0.966 µM; in the assay on OVCAR-5 ovarian, 6.2 µM. Besides, the GI50 is 1.31 µM in the assay on RXF 393 renal, 1.83 µM in the assay with SN12C renal, 0.821 µM with SR leukemia and 1.77 µM in the assay on U251 CNS. Moreover, the TGI was found to be 5.72 µM in the assay with CCRF-CEM leukemia; 1.99 µM with COLO 205 colon; 10.3 µM in the assay on DU-145 prostate; 13.8 µM in the assay with NCI-H23 lung; 1.83 µM in the assay with NCI-H460 lung; 12.8 µM in the assay on OVCAR-5 ovarian. The concentration for total growth inhibition (TGI) in the assay on RXF 393 renal amounted to 3.35 µM; in the assay with SN12C renal, 6.71 µM; with SR leukemia it was 2.2 µM; in the assay with U251 CNS, 5.48 µM.
